Results on 20 compounds are retold here after patent US20220348590A1, “CYCLOOXYGENASE-2 INHIBITORS AND USES THEREOF” (The Board Institute, Inc., priority 2019, published 2022).

Read-outs that look alike come from different tables or passages of the source.

This experiment addresses T1, human recombinant COX2 (hCOX2) (UniProt P35354).
T1 sequence (P35354 1-604): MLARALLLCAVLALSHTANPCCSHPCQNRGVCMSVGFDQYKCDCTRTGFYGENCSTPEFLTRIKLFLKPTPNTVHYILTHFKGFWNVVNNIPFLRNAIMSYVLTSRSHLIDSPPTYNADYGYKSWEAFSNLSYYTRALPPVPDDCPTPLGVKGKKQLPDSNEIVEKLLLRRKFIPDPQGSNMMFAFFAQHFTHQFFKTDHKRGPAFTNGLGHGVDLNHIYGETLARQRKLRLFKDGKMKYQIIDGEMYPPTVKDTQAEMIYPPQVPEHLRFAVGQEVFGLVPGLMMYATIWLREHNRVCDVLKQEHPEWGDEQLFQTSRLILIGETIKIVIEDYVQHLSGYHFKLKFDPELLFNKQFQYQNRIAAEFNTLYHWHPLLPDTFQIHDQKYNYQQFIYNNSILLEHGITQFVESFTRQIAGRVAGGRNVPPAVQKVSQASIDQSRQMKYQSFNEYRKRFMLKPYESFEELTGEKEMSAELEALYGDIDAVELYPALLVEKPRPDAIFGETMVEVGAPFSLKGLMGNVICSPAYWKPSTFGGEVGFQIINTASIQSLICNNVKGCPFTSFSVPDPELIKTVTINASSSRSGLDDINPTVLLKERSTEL
Kind of experiment: LCMS-based COX2 enzymatic inhibition assay (PGE2 quantification). Details: COX2 2 minutes pge2/pge2d4 area ratio Avg; other: 2 minutes; readout pge2/pge2d4 area ratio; average; COX2 2 minutes pge2/pge2d4 area ratio Avg; LLE; average LLE; COX2 2 minutes pge2 area (counts) Avg; readout pge2 area (counts); other: 2 min; "ovine COX2 (oCOX2), human recombinant COX2 (hCOX2)". Particulars: for COX2 2 minutes pge2/pge2d4 area ratio Avg. LLE / COX2 2 minutes pge2 area (counts) Avg. LLE / COX2 10 minutes pge2 area (counts) Avg. LLE: average LLE; for IC50: average. It is filed as biochemical. As to the method: We have adapted a previously reported cyclooxygenase enzymatic assay utilizing LCMS quantification of PGE2 as the product of COX-1 and COX2 catalyzed conversion of arachidonic acid to evaluate the binding properties of newly synthesized ligands [Cao, 2011]. These optimized and miniaturized (384-well plates) LCMS-based COX-1 and COX2 enzymatic assays enabled us to quickly evaluate newly synthesized ligands for COX2 binding affinity and selectivity vs COX-1. Using a shorter ligand-enzyme incubation time in the LCMS assay (2 minutes vs 10 minutes) also permitted us to prioritize ligands with faster binding kinetics. Considering the relatively slow on-rate kinetics of known coxibs, due to their 3-step binding mechanism [Marnett, 2009], we believe that optimizing this critical parameter will be key to the successful development of a COX2 PET tracer. Using these enzymatic assays, we have evaluated>200 newly synthesized ligands against COX2 and >20 ligands against COX-1. Another critical property necessary for a good PET radiotracer is to have low non-specific binding (NSB) to increase the free fraction and maximize the signal to noise ratio. This property can be evaluated using in-vitro protein binding assays, and we have now evaluated>50 newly synthesized ligands in mouse, rat and human plasma protein binding (PPB) assays as well as >15 ligands in a mouse brain protein binding (BPB) assay.
Ovine COX-1 (oCOX-1), ovine COX2 (oCOX2), human recombinant COX2 (hCOX2), arachidonic acid, PGE2, d4-PGD2, and […] (labeled with deuterium atoms at positions 3 and 4) were purchased from Cayman Chemicals (Ann Arbor, Mich.). The cofactors (−)epinephrine and hematin, and the COX inhibitors indomethacin, resveratrol and diclofenac were purchased from Sigma-Aldrich (St. Louis, Mo.). Celecoxib was purchased from 3B PharmaChem International (Wuhan, China). All organic solvents were HPLC grade or better and were purchased from Thermo Fisher (Hanover Park, Ill.). Formic acid was purchased from EMD Chemicals (San Diego, Calif.). Purified water was prepared by using a Millipore Milli-Q purification system (Millipore, Billerica, Mass.). All other chemicals and solvents were ACS reagent grade, unless stated otherwise.
In an Eppendorf tube, 146 μL of 100 mM Tris.HCl (pH 8.0) buffer, 2 μL of 100 μM hematin (co-factor) and 10 μL of 40 mM L-epinephrine (co-factor) were mixed at room temperature. Next, 20 μL of Tris.HCl (pH 8.0) buffer containing 0.2 μg COX2 or 0.1 μg COX-1 (approximately 1 unit of enzyme; 1 unit COX utilizes 1 nmol 02/mg/min at 37° C.) was added, and the solution was incubated at room temperature for 2 min. A 2 μL aliquot of the COX inhibitor in DMSO was added to the enzyme solution and preincubated at 37° C. for 10 min. Negative controls were identical except that 2 μL aliquots of DMSO without inhibitor were used instead.
Each COX reaction was initiated by adding 20 μL of arachidonic acid in Tris.HCl (pH 8.0) buffer to give a final concentration of 5 μM; and the reaction was terminated after 2 min by adding 20 μL of 2.0 M HCl. The surrogate standards d4-PGE2 and d4-PGD2 (10 μL aliquot of 50 ng/mL solution in methanol) were added to correct for errors or degradation during sample handling and for variation in injection volume or instrument response during LC-MS-MS. After 30 min, PGE2, PGD2 and their surrogate standards were extracted from each incubation mixture using 800 μL hexane/ethyl acetate (50:50, v/v). The organic phase was removed, evaporated to dryness, and reconstituted in 100 μL methanol/water (50:50, v/v) for analysis using LC-MS-MS.
The concentration of PGE2 in each sample was measured using LC-MS-MS, and the percent of COX inhibition by each test solution was determined by comparing the amount of PGE2 produced in the experiment with that produced in the negative control incubation. The formation of PGD2 was measured for quality control purposes, since the levels of PGD2 should be proportional to those of PGE2. […]

[1] abbreviates: 2 minutes, readout pge2/pge2d4 area ratio.
[2] abbreviates: 2 minutes, readout pge2 area (counts).
Where [3] appears, read: read-out: COX2 2 minutes pge2/pge2d4 area ratio Avg. IC50 (microM), 2 minutes, readout pge2/pge2d4 area ratio.
[4] abbreviates: 2 minutes, readout pge2/pge2d4 area ratio, read-out: COX2 2 minutes pge2/pge2d4 area ratio Avg. IC50.
[5] abbreviates: 2 minutes, readout pge2 area (counts), read-out: COX2 2 minutes pge2 area (counts) Avg. IC50.
Where [6] appears, read: 10 minutes, readout pge2 area (counts).
Where [7] appears, read: 10 minutes, readout pge2 area (counts), read-out: COX2 10 minutes pge2 area (counts) Avg. IC50.

`CS(=O)(=O)c1ccc(-c2cc(S(C)(=O)=O)cc(NCc3cccs3)n2)cc1` [Compound 268]: the “COX2 2 minutes pge2/pge2d4 area ratio Avg. LLE” value under setting [1] was 2.624. The “COX2 2 minutes pge2 area (counts) Avg. LLE” value (shortened to “COX2 2 minutes pge2 area”) under setting [2] came to 2.624. For the same compound, the IC50 under setting [3] is 5.2 µM.

`CS(=O)(=O)c1ccc(-c2cccc(C3CC3c3ccoc3)n2)cc1` (single isomer, unassigned) [Compound 115, 2-[2-(furan-3-yl)cyclopropyl]-6-(4-methanesulfonylphenyl)pyridine]: the “COX2 2 minutes pge2/pge2d4 area ratio Avg. LLE” value under setting [1] amounted to 2.867. The IC50 stood at 0.107 µM under setting [4] and 0.0632 µM under setting [5]. For the same compound, the “COX2 2 minutes pge2 area” value under setting [2] came to 2.982.

For the compound `CS(=O)(=O)c1ccc(-c2cncc(SCc3ccno3)n2)cc1` [Compound 193], the “COX2 2 minutes pge2/pge2d4 area ratio Avg. LLE” value under setting [1] is 4.9351. Further, the IC50 amounted to 0.772 µM under setting [4] and 1.09 µM under setting [5]. The “COX2 2 minutes pge2 area” value under setting [2] is 4.813.

As to `CS(=O)(=O)c1ccc(-c2cncc(NC34CC5CC(CC(C5)C3)C4)n2)cc1` [Compound 240], under setting [1], the “COX2 2 minutes pge2/pge2d4 area ratio Avg. LLE” value worked out at 2.7806. Moreover, the IC50 reads like this: under setting [4], 2.82 µM; under setting [7], 1.31 µM. Moreover, under setting [2], the “COX2 2 minutes pge2 area” value worked out at 2.394. Also, the “COX2 10 minutes pge2 area (counts) Avg. LLE” value (“COX2 10 minutes pge2 area” for short) under setting [6] amounted to 2.9969.

With `CN1CCN(c2cncc(-c3ccc(S(C)(=O)=O)cc3)n2)CC1` [Compound 287], under setting [1], the “COX2 2 minutes pge2/pge2d4 area ratio Avg. LLE” value is 5.044. For the same compound, the “COX2 2 minutes pge2 area” value under setting [2] was 5.044. Also, under setting [6], the “COX2 10 minutes pge2 area” value was found to be 5.574. Further, the IC50 reads like this: under setting [7], 1.54 µM; under setting [3], 5.2 µM.

As to `CS(=O)(=O)c1ccc(-c2cccc(Nc3ccccc3)n2)cc1` [Compound 194], under setting [1], the “COX2 2 minutes pge2/pge2d4 area ratio Avg. LLE” value turned out to be 2.607. For the same compound, the IC50 is 0.883 µM under setting [4] and 1.04 µM under setting [5]. In addition, under setting [2], the “COX2 2 minutes pge2 area” value was found to be 2.538.

`CS(=O)(=O)c1ccc(-c2cncc(OCC3CC3)n2)cc1` [Compound 273]: the “COX2 2 minutes pge2/pge2d4 area ratio Avg. LLE” value under setting [1] amounted to 3.734. For the same compound, the “COX2 2 minutes pge2 area” value under setting [2] stood at 3.734. Also, the IC50 under setting [3] amounted to 5.2 µM.

Take `CS(=O)(=O)c1ccc(-c2nc(NCc3cccs3)cnc2N)cc1` [Compound 90]: the “COX2 2 minutes pge2/pge2d4 area ratio Avg. LLE” value under setting [1] amounted to 5.442. The IC50 is 0.0671 µM under setting [4] and 0.942 µM under setting [5]. Besides, the “COX2 2 minutes pge2 area” value under setting [2] was determined as 4.51.

As for `CS(=O)(=O)c1ccc(-c2cncc(OCc3ccc(Cl)s3)n2)cc1` [Compound 4], the “COX2 2 minutes pge2/pge2d4 area ratio Avg. LLE” value under setting [1] is 4.855. The IC50 under setting [4] worked out at 0.006 µM and the IC50 under setting [5] is 0.0141 µM. Under setting [2], the “COX2 2 minutes pge2 area” value is reported as 4.615.

For the compound `CS(=O)(=O)c1ccc(-c2cncc(NCc3ccco3)c2)cc1` [Compound 161], the IC50 under setting [4] was found to be 0.388 µM and the IC50 under setting [5] amounted to 0.337 µM.

Turning to `CS(=O)(=O)c1ccc(-c2cncc(NCc3ccc(F)nc3)n2)cc1` [Compound 208], the “COX2 2 minutes pge2/pge2d4 area ratio Avg. LLE” value under setting [1] is 4.4967. Further, the IC50 under setting [4] amounted to 1.34 µM, the IC50 under setting [5] was 1.31 µM and the IC50 under setting [7] was determined as 0.357 µM. Besides, the “COX2 2 minutes pge2 area” value under setting [2] was found to be 4.501. The “COX2 10 minutes pge2 area” value under setting [6] is 5.151.

On to `CS(=O)(=O)c1ccc(-c2coc3ccc(NCc4ccoc4)nc23)cc1` [Compound 55], for which the IC50 reads like this: under setting [4], 0.0305 µM; under setting [5], 0.0265 µM.

With `CC(=O)c1ncc(NCc2cccs2)nc1-c1ccc(S(C)(=O)=O)cc1` [Compound 248], the “COX2 2 minutes pge2/pge2d4 area ratio Avg. LLE” value under setting [1] was 3.159. The IC50 reads like this: under setting [4], 3.36 µM; under setting [5], 3.3 µM. Also, under setting [2], the “COX2 2 minutes pge2 area” value is given as 3.163.

On to `C[C@H](Nc1cccc(-c2ccc(S(C)(=O)=O)cc2)n1)c1ccco1` (single isomer, unassigned) [Compound 89], for which the “COX2 2 minutes pge2/pge2d4 area ratio Avg. LLE” value under setting [1] came out at 3.84. For the same compound, the IC50 runs as follows: under setting [4], 0.0656 µM; under setting [5], 0.06 µM. The “COX2 2 minutes pge2 area” value under setting [2] was determined as 3.875.

On to `CS(=O)(=O)c1ccc(-c2cnnc(NCc3cccs3)c2)cc1` [Compound 233], for which the “COX2 2 minutes pge2/pge2d4 area ratio Avg. LLE” value under setting [1] stood at 2.958. Besides, the IC50 is 2.45 µM under setting [4] and 3.06 µM under setting [5]. Further, under setting [2], the “COX2 2 minutes pge2 area” value came to 2.953.

As to `COCCOc1ncc(NCc2cccs2)nc1-c1ccc(S(C)(=O)=O)cc1` [Compound 133], the “COX2 2 minutes pge2/pge2d4 area ratio Avg. LLE” value under setting [1] was determined as 4.558. The IC50 is 0.167 µM under setting [4] and 0.126 µM under setting [5]. For the same compound, under setting [2], the “COX2 2 minutes pge2 area” value worked out at 4.582.

As for `CS(=O)(=O)c1ccc(-c2cncc(NCc3nccs3)n2)cc1` [Compound 203], under setting [1], the “COX2 2 minutes pge2/pge2d4 area ratio Avg. LLE” value was found to be 4.216. Moreover, the IC50 by setting is: under setting [4], 1.15 µM; under setting [5], 0.804 µM. Moreover, under setting [2], the “COX2 2 minutes pge2 area” value is reported as 4.434.

For the compound `CS(=O)(=O)c1ccc(-c2cccc(NCc3nccs3)n2)cc1` [Compound 105], the “COX2 2 minutes pge2/pge2d4 area ratio Avg. LLE” value under setting [1] was 3.99. In addition, the IC50 under setting [4] worked out at 0.0915 µM and the IC50 under setting [5] amounted to 0.105 µM. Moreover, the “COX2 2 minutes pge2 area” value under setting [2] is given as 3.918.

As for `CS(=O)(=O)c1ccc(-c2cncc(OCc3ccc(Cl)o3)n2)cc1` [Compound 212], the “COX2 2 minutes pge2/pge2d4 area ratio Avg. LLE” value under setting [1] turned out to be 2.9422. Moreover, the IC50 is, setting by setting: under setting [4], 1.47 µM; under setting [5], 1.66 µM. For the same compound, the “COX2 2 minutes pge2 area” value under setting [2] amounted to 2.889.

`COc1ncc(NCc2nccs2)nc1-c1ccc(S(C)(=O)=O)cc1` [Compound 107]: the “COX2 2 minutes pge2/pge2d4 area ratio Avg. LLE” value under setting [1] was 4.932. The IC50 under setting [4] worked out at 0.0933 µM and the IC50 under setting [5] is 0.0881 µM. For the same compound, the “COX2 2 minutes pge2 area” value under setting [2] turned out to be 4.948.
